Paper PMC7872314, “Modeling Bioavailable Concentrations in Zebrafish Cell Lines and Embryos Increases the Correlation of Toxicity Potencies across Test Systems” (Environmental Science & Technology, 2020)
Like-named read-outs stand apart in the source and are kept apart here.

Assays:
zebrafish embryos [1] = test: animal or person; format: in vivo, zebrafish (Danio rerio)
[2] = system: ZFL (hepatocytes) cell line; test: cells; format: cell-based, zebrafish (Danio rerio); details: Danio rerio, Hepatocyte
[3] = system: ZFL (hepatocytes) cell line; test: cells; format: cell-based, zebrafish (Danio rerio); details: Danio rerio, Hepatocyte; remark: listed apart in the source
ZF4 and ZFL cell lines = test: Cytotoxicity assays, all endpoints, both cell lines (mean/range); format: cell-based, zebrafish (Danio rerio); details: 48 h
[4] = system: ZFL (hepatocytes) cell line; test: cells; format: cell-based, zebrafish (Danio rerio); details: Danio rerio, Hepatocyte; remark: listed apart in the source
[5] = system: ZFL (hepatocytes) cell line; test: cells; format: cell-based, zebrafish (Danio rerio); details: Danio rerio, Hepatocyte; remark: listed apart in the source
[6] = system: ZFL (hepatocytes) cell line; test: cells; format: cell-based, zebrafish (Danio rerio); details: Danio rerio, Hepatocyte; remark: listed apart in the source
[7] = system: ZFL (hepatocytes) cell line; test: cells; format: cell-based, zebrafish (Danio rerio); details: Danio rerio, Hepatocyte; remark: listed apart in the source
[8] = system: ZF4 (fibroblasts) cell line; test: Neutral red, fluorescence (NRf), AB/CFDA/NR multiplex, lysosome stability; format: cell-based, zebrafish (Danio rerio); details: Danio rerio, Fibroblast
[9] = system: ZF4 (fibroblasts) cell line; test: BCA assay (MTS/BCA multiplex), protein amount; format: cell-based, zebrafish (Danio rerio); details: Danio rerio, Fibroblast
[10] = system: ZF4 (fibroblasts) cell line; test: MTS assay (MTS/BCA multiplex), NAD(P)H metabolism; format: cell-based, zebrafish (Danio rerio); details: Danio rerio, Fibroblast
[11] = ref Comptox, PubChem or DrugBank; cited from earlier work
[12] = system: ZFL (hepatocytes) cell line; test: cells; format: cell-based, zebrafish (Danio rerio); details: Danio rerio, Hepatocyte; remark: listed apart in the source
[13] = system: ZF4 (fibroblasts) cell line; test: alamarBlue (AB) endpoint of AB/CFDA/NR multiplex, cellular respiration; format: cell-based, zebrafish (Danio rerio); details: Danio rerio, Fibroblast
[14] = system: ZF4 (fibroblasts) cell line; test: CFDA endpoint of AB/CFDA/NR multiplex, membrane stability; format: cell-based, zebrafish (Danio rerio); details: Danio rerio, Fibroblast
[15] = system: ZF4 (fibroblasts) cell line; test: ATP assay (ATP/LDH multiplex), ATP metabolism; format: cell-based, zebrafish (Danio rerio); details: Danio rerio, Fibroblast
zebrafish embryos [16] = system: zebrafish embryos; parameters: method as in earlier work; details: nominal, cited from earlier work
[17] = system: ZF4 (fibroblasts) cell line; test: Neutral red, absorbance (NRa), AB/CFDA/NR multiplex, lysosome stability; format: cell-based, zebrafish (Danio rerio); details: Danio rerio, Fibroblast

CCC(C)C1OC2(CCC1C)CC1CC(CC=C(C)C(OC3CC(OC)C(OC4CC(OC)C(O)C(C)O4)C(C)O3)C(C)C=CC=C3COC4C(O)C(C)=CC(C(=O)O1)C34O)O2 (stereo not drawn) [Ivermectin, ivermectin]
difference in toxicity (EC50;nom) between 48 hpf and 144 hpf (zebrafish embryos [1]; 48 hpf time point less sensitive than 144 hpf): marginally more toxic
log EC50;nom (mFET) (zebrafish embryos [1]; 48 hpf, nominal, log10, listed as Ive): -5.766 M
EC50 (zebrafish embryos [1]; Danio rerio, 48 hpf, nominal, log10, read-out: log EC50;nom (mFET) (converted)): 1.7 µM
EC50 (zebrafish embryos [1]; Danio rerio, 48 hpf, nominal, read-out: EC50;nom (embryo)): 1.5 µg/mL
EC50 (zebrafish embryos [1]; Danio rerio, read-out: EC50 48hpf): 1.71 µM
EC50 (zebrafish embryos [1]; Danio rerio, read-out: EC50;nom (mFET)): 1.71 µM
EC50 (zebrafish embryos [1]; zebrafish, in vivo, listed as Ive, read-out: EC50;nom (mFET)): 1.71 µM
IC50 ([2]; AB - ZFL, log10 of IC50, read-out: LogIC50 (converted)): 6.58 µM
IC50 ([2]; AB - ZFL, read-out: IC50): 6.58 µM
IC50 ([2]; ZFL, 48 h exposure, nominal, log10, read-out: logIC50 (log10 IC50;nom) AB (converted)): 6.61 µM
IC50 ([2]; ZFL, 48 h exposure, nominal, read-out: IC50;nom AB): 6.58 µM
IC50 ([3]; BCA - ZFL, log10 of IC50, read-out: LogIC50 (converted)): 7.08 µM
IC50 ([3]; BCA - ZFL, read-out: IC50): 7.08 µM
IC50 ([3]; ZFL, 48 h exposure, nominal, log10, read-out: logIC50 (log10 IC50;nom) BCA (converted)): 7.08 µM
IC50 ([3]; ZFL, 48 h exposure, nominal, read-out: IC50;nom BCA): 7.08 µM
IC50 (ZF4 and ZFL cell lines; Danio rerio, read-out: Mean log IC50nom, mean of all cytotoxicity endpoints (without LDH) in ZF4 and ZFL, 48 h, log10 (converted)): 9.12 µM
Mean log IC50nom (ZF4 and ZFL cell lines; mean of all cytotoxicity endpoints (without LDH) in ZF4 and ZFL, log10, listed as Ive): -5.042 M
IC50 ([4]; MTS - ZFL, log10 of IC50, read-out: LogIC50 (converted)): 10.2 µM
IC50 ([4]; MTS - ZFL, read-out: IC50): 10.2 µM
IC50 ([4]; ZFL, 48 h exposure, nominal, log10, read-out: logIC50 (log10 IC50;nom) MTS (converted)): 10.2 µM
IC50 ([4]; ZFL, 48 h exposure, nominal, read-out: IC50;nom MTS): 10.2 µM
IC50 ([5]; CFDA - ZFL, log10 of IC50, read-out: LogIC50 (converted)): 14.1 µM
IC50 ([5]; CFDA - ZFL, read-out: IC50): 14.1 µM
IC50 ([5]; ZFL, 48 h exposure, nominal, log10, read-out: logIC50 (log10 IC50;nom) CFDA (converted)): 14.1 µM
IC50 ([5]; ZFL, 48 h exposure, nominal, read-out: IC50;nom CFDA): 14.1 µM
IC50 ([6]; NR-fluo - ZFL, log10 of IC50, read-out: LogIC50 (converted)): 3.34 µM
IC50 ([6]; NR-fluo - ZFL, read-out: IC50): 3.34 µM
IC50 ([6]; ZFL, 48 h exposure, nominal, log10, read-out: logIC50 (log10 IC50;nom) NRf (converted)): 3.31 µM
IC50 ([6]; ZFL, 48 h exposure, nominal, read-out: IC50;nom NRf): 3.34 µM
IC50 ([7]; NR-abs - ZFL, log10 of IC50, read-out: LogIC50 (converted)): 2.55 µM
IC50 ([7]; NR-abs - ZFL, read-out: IC50): 2.55 µM
IC50 ([7]; ZFL, 48 h exposure, nominal, log10, read-out: logIC50 (log10 IC50;nom) NRa (converted)): 2.57 µM
IC50 ([7]; ZFL, 48 h exposure, nominal, read-out: IC50;nom NRa): 2.55 µM
IC50 ([8]; NR-fluo - ZF4, log10 of IC50, read-out: LogIC50 (converted)): 18.1 µM
IC50 ([8]; NR-fluo - ZF4, read-out: IC50): 18.1 µM
IC50 ([8]; ZF4, 48 h exposure, nominal, log10, read-out: logIC50 (log10 IC50;nom) NRf (converted)): 18.2 µM
IC50 ([8]; ZF4, 48 h exposure, nominal, read-out: IC50;nom NRf): 18.1 µM
IC50 ([9]; BCA - ZF4, log10 of IC50, read-out: LogIC50 (converted)): 16.2 µM
IC50 ([9]; BCA - ZF4, read-out: IC50): 16.2 µM
IC50 ([9]; ZF4, 48 h exposure, nominal, log10, read-out: logIC50 (log10 IC50;nom) BCA (converted)): 16.2 µM
IC50 ([9]; ZF4, 48 h exposure, nominal, read-out: IC50;nom BCA): 16.2 µM
IC50 ([10]; MTS - ZF4, log10 of IC50, read-out: LogIC50 (converted)): 13.6 µM
IC50 ([10]; MTS - ZF4, read-out: IC50): 13.6 µM
IC50 ([10]; ZF4, 48 h exposure, nominal, log10, read-out: logIC50 (log10 IC50;nom) MTS (converted)): 13.5 µM
IC50 ([10]; ZF4, 48 h exposure, nominal, read-out: IC50;nom MTS): 13.6 µM
Physiological charge [11]: 0
Water Solubility [11]: insoluble
logKow [11]: 5.83
pKa (Strongest Acidic) [11]: 12.47
pKa (Strongest Basic) [11]: -3.4
IC50 ([12]; ATP - ZFL, log10 of IC50, read-out: LogIC50 (converted)): 2.61 µM
IC50 ([12]; ATP - ZFL, read-out: IC50): 2.61 µM
IC50 ([12]; ZFL, 48 h exposure, nominal, log10, read-out: logIC50 (log10 IC50;nom) ATP (converted)): 2.63 µM
IC50 ([12]; ZFL, 48 h exposure, nominal, read-out: IC50;nom ATP): 2.61 µM
IC50 ([13]; AB - ZF4, log10 of IC50, read-out: LogIC50 (converted)): 10.2 µM
IC50 ([13]; AB - ZF4, read-out: IC50): 10.2 µM
IC50 ([13]; ZF4, 48 h exposure, nominal, log10, read-out: logIC50 (log10 IC50;nom) AB (converted)): 10.2 µM
IC50 ([13]; ZF4, 48 h exposure, nominal, read-out: IC50;nom AB): 10.2 µM
IC50 ([14]; CFDA - ZF4, log10 of IC50, read-out: LogIC50 (converted)): 18.2 µM
IC50 ([14]; CFDA - ZF4, read-out: IC50): 18.2 µM
IC50 ([14]; ZF4, 48 h exposure, nominal, log10, read-out: logIC50 (log10 IC50;nom) CFDA (converted)): 18.2 µM
IC50 ([14]; ZF4, 48 h exposure, nominal, read-out: IC50;nom CFDA): 18.2 µM
IC50 ([15]; ATP - ZF4, log10 of IC50, read-out: LogIC50 (converted)): 15.4 µM
IC50 ([15]; ATP - ZF4, read-out: IC50): 15.4 µM
IC50 ([15]; ZF4, 48 h exposure, nominal, log10, read-out: logIC50 (log10 IC50;nom) ATP (converted)): 15.5 µM
IC50 ([15]; ZF4, 48 h exposure, nominal, read-out: IC50;nom ATP): 15.4 µM
EC50 (zebrafish embryos [16]; 144 hpf, converted, listed as Ive): 0.503 µM
logEC50 144 hpf (zebrafish embryos [16]; log10): -6.299 M
IC50 ([17]; NR-abs - ZF4, log10 of IC50, read-out: LogIC50 (converted)): 15.4 µM
IC50 ([17]; NR-abs - ZF4, read-out: IC50): 15.4 µM
IC50 ([17]; ZF4, 48 h exposure, nominal, log10, read-out: logIC50 (log10 IC50;nom) NRa (converted)): 15.5 µM
IC50 ([17]; ZF4, 48 h exposure, nominal, read-out: IC50;nom NRa): 15.4 µM
